The text below walks through data of patent US20060241123A1, “Substituted piperidine and piperazine derivatives as melanocortin-4 receptor modulators” (priority 2003, published 2006).

Experiment [1] has as its target T1, hMC4-R (Homo sapiens, UniProt P32245).
T1 construct: expressed in transfected cells; host or cells: HEK293 cells
Kind of experiment: Functional cellular cAMP assay, fluorescence polarization, HEK293 cells. Format: cell-based. The following applies: for % activation functional assay: compared to stimulation with NDP-alpha-MSH; for pEC50: read-out: EC50 activation of melanocortin-4 receptor, our assay system. On the procedure: A functional cellular assay, based on competition between unlabeled CAMP and a fixed quantity of fluorescence labeled cAMP for a limited number of binding sites on a cAMP specific antibody, is used to discriminate melanocortin receptor agonists from antagonists by fluorescence polarization.
HEK293 cells expressing one of the human melanocortin receptors are transferred to 384 well microtiter plates, an appropriate amount of cAMP antibody is added, followed by the addition of different concentrations of the test compound to effect cAMP production. Cells are lysed and a fluorescence labeled cAMP conjugate is dispensed. The plate is read on a fluorescence polarization microplate reader and the amount of cAMP produced as a response to a test compound is compared to the production of cAMP resulting from stimulation with NDP-alpha-MSH. […]

Experiment [2] addresses T1, hMC4-R. Kind of experiment: Membrane binding assay, fluorescence polarization, fluorescence labeled NDP-alpha-MSH. The following applies: HEK293 cell membrane preparations. How it is done:
A membrane binding assay is used to identify competitive inhibitors of fluorescence labeled NDP-alpha-MSH binding to HEK293 cell membrane preparations expressing human melanocortin receptors.
The test compound or unlabeled NDP-alpha-MSH is dispensed at varying concentrations to a 384 well microtiter plate. Fluorescence labeled NDP-alpha-MSH is dispensed at a single concentration, followed by addition of membrane preparations. The plate is incubated for 5 h at room temperature.
The degree of fluorescence polarization is determined with a fluorescence polarization microplate reader.

In experiment [3] the test system is male Wistar rats. Kind of experiment: Spontaneous feeding paradigm, food intake in rats. It counts as in vivo, rat. Conditions: for increase in cumulative food intake: compared to vehicle. How it is done:
Food intake in rats is measured after i.p. or p.o. administration of the test compound (see e.g. Chen, A. S. et al. Transgenic Res 2000 April; 9(2):145-54).
Selected Examples of the present invention were active in the rat model at 3, 10 or 30 mg/kg after i.p. and p.o. administration of the test compound, respectively, using male Wistar rats (n=4−6).

In experiment [4] the test system is male Wistar rats. Kind of experiment: Lipopolysaccharide-induced cachexia in rats (acute model). Format: in vivo, rat. On the procedure: Prevention or amelioration of cachexia induced by either lipopolysaccharide (LPS) administration or by tumor growth is determined upon i.p. or p.o. administration of test compounds to rats (see e.g. Marks, D. L.; Ling, N and Cone, R. D. Cancer Res 2001 Feb. 15; 61 (4): 1432-8).
1-2 Hours prior to the onset of the dark-phase, individually housed, male Wistar rats (200-300 g) receive an ip or po application of test-compound or vehicle (2 ml/kg, 1-30 mg/kg) which is followed or preceded by an ip injection of either lipopolysaccharide (LPS) or saline (2 ml/kg, 100 μg/kg). Food intake, water intake and body weight are measured at 1-24 hour intervals and differences between experimental groups are evaluated.

The conditions of experiment [5]: J. Med. Chem. 2002, 45, 4589-4593; cited from earlier work.
Experiment [6] has as its system rat. Conditions: i.v. or p.o.; WO0074679; cited from earlier work.
Experiment [7] addresses T2, melanocortin-4 receptor (Homo sapiens, UniProt P32245). The following applies: cited from earlier work; for % stimulation: Bioorg. Med. Chem. Lett. 2003, 13, 3793-3796.
The target in experiment [8] is T2, melanocortin-4 receptor. The following applies: cited from earlier work.
Setting [9] is: 3 mg/kg p.o., 4 hours following administration.
The mark [10] stands for this setting: 3 mg/kg p.o., 6 hours following administration.
The mark [11] stands for this setting: 3 mg/kg p.o., 7 hours following administration.

pEC50, pKi: −log10 of the molar value. Read-outs that look alike come from different tables or passages of the source.

T1 sequence (P32245 whole entry): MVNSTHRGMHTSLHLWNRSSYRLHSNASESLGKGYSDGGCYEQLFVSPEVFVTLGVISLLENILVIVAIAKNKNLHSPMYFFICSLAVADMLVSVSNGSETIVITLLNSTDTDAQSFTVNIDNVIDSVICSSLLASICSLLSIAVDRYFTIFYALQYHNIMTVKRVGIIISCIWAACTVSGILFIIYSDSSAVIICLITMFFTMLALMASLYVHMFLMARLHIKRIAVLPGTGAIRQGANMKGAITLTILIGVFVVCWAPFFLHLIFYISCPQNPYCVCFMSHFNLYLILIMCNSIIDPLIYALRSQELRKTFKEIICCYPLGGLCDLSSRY
T2 sequence (P32245 whole entry): as above

In the case of `CS(=O)(=O)N1CC2(CCN(C(=O)[C@@H](Cc3ccc(Cl)cc3)NC(=O)c3cc(=O)c4ccccc4o3)CC2)c2ccccc21` [Example 1], in experiment [1], the “activation of the melanocortin-4 receptor in the functional assay” value (from here on “activation … in the functional assay”) is reported as “does not activate” and the “% activation functional assay” value is reported as “no activation”. Further, in experiment [2], the IC50 (as a rule, the point on the concentration scale where inhibition reaches its midpoint) was determined as 80 nM.

Consider `CS(=O)(=O)Nc1ccccc1N1CCN(C(=O)[C@@H](Cc2ccc(Cl)cc2)NC(=O)c2cc(=O)c3ccccc3o2)CC1` [Example 8], for which, in experiment [1], the “activation … in the functional assay” value is recorded as “does not activate” and the “% activation functional assay” value was “no activation”. Besides, in experiment [2], the IC50 came out at 300 nM.

In the case of `O=C(N[C@H](Cc1ccc(Cl)cc1)C(=O)N1CCC(Cn2cncn2)(C2CCCCC2)CC1)c1cc(=O)c2ccccc2o1` [Example 15], in experiment [3] (3 mg/kg p.o.), the “food intake in spontaneous feeding paradigm” value is reported as “significantly increase in food intake”. Further, the entries for the “increase in cumulative food intake” value in experiment [3] (setting [9]), in experiment [3] (setting [10]) and in experiment [3] (setting [11]) were 290%, 186% and 355%, respectively. Besides, the EC50 in experiment [1] (cAMP production, read-out: hMC4-R functional assay EC50/nM) was 700 nM. The “% activation functional assay” value in experiment [1] stood at 40%. The compound also had an IC50 in experiment [2] of 4.4 nM.

As for `CC(C)(C)NC(=O)C1(C2CCCCC2)CCN(C(=O)[C@@H](Cc2ccc(Cl)cc2)NC(=O)c2cc(=O)c3ccccc3o2)CC1` [Example 66], the “food intake in spontaneous feeding paradigm” value in experiment [3] (3 mg/kg p.o.) was “significant increase in food intake”. In addition, the “increase in cumulative food intake” value in experiment [3] (3 mg/kg p.o., 2 hours following administration) turned out to be 410%; in experiment [3] (setting [9]) it was 500%; in experiment [3] (setting [10]), 186%; in experiment [3] (setting [11]), 272%; in experiment [4] (10 mg/kg p.o. in combination with LPS, 4 hours following administration, compared to LPS and vehicle), 148%. In experiment [1], the “activation … in the functional assay” value is given as “no activation”. For the same compound, in experiment [1], the “% activation functional assay” value was “no activation”. For the same compound, in experiment [4] (10 mg/kg p.o.), the “cumulative food intake in LPS-induced cachexia” value is “significant increase in cumulative food intake”. This compound registered an IC50 in experiment [2] of 6.8 nM.

Take `CS(=O)(=O)NCc1ccccc1N1CCN(C(=O)[C@@H](Cc2ccc(Cl)cc2)NC(=O)c2cc(=O)c3ccccc3o2)CC1` [Example 110]: in experiment [1], the “activation … in the functional assay” value is on record as “does not activate” and the “% activation functional assay” value is recorded as “no activation”. The compound further showed a concentration for half-maximal inhibition (IC50) in experiment [2] of 790 nM.

Take `O=C(N[C@H](Cc1ccc(Cl)cc1)C(=O)N1CCN(c2ccccc2C(=O)N2CCCCC2)CC1)c1cc(=O)c2ccccc2o1` [Example 113]: the “increase in cumulative food intake” value was found to be 192% in experiment [3] (30 mg/kg p.o., 2 hours following administration); 159% in experiment [3] (30 mg/kg p.o., 4 hours following administration); 191% in experiment [3] (30 mg/kg p.o., 6 hours following administration); 200% in experiment [3] (30 mg/kg p.o., 7 hours following administration).

For `CS(=O)(=O)N1CC2(CCN(C(=O)C[C@@H](Cc3ccc(Cl)cc3)NC(=O)[C@H]3Cc4ccccc4CN3)CC2)c2ccccc21.Cl` [Example 212], the “increase in cumulative food intake” value in experiment [3] (10 mg/kg i.p., 2 hours following administration) amounted to 708%; in experiment [3] (10 mg/kg i.p., 4 hours following administration) it was 725%; in experiment [3] (10 mg/kg i.p., 6 hours following administration), 224%; in experiment [3] (10 mg/kg i.p., 8 hours following administration) it was 167%.

Regarding `O=C(NC(Cc1ccc(Cl)cc1)C(=O)N1CCC(Cn2cncn2)(C2CCCCC2)CC1)C1Cc2ccccc2CN1` (stereo not drawn) [WO0074679, example 2], in experiment [1], the “% activation functional assay” value is 102%. In addition, the “food intake” value in experiment [5] is on record as “significantly reduced”. In addition, the “in vivo activity in reflexogenic erections model” value in experiment [6] is reported as “in vivo agonist”. Further, the “melanocortin-4 receptor activation” value in experiment [7] (at 10 μM, J. Med. Chem. 2002, 45, 4589-4593) is given as “activate the melanocortin-4 receptor”.

`CS(=O)(=O)NCc1ccccc1N1CCN(C(=O)C(Cc2ccc(Cl)cc2)NC(=O)C2Cc3ccccc3CN2)CC1` (stereo not drawn) [WO02059108, example 56]: in experiment [8] (J. Med. Chem. 2004, 47, 744-755), the pKi – broadly, −log10 of the Ki, conventionally taken in molar units – is 6.68. The pEC50 (as a rule, −log10 of the EC50, conventionally taken in molar units) in experiment [7] (J. Med. Chem. 2004, 47, 744-755, read-out: EC50 activation of melanocortin-4 receptor) is 7.32.

On to `CS(=O)(=O)Nc1ccccc1N1CCN(C(=O)[C@@H](Cc2ccc(Cl)cc2)NC(=O)[C@H]2Cc3ccccc3CN2)CC1` [WO03009850, example 1, reference compound], for which, in experiment [1] (cAMP production), the negative-log EC50 (pEC50) was 5.43. Besides, the “% activation functional assay” value in experiment [1] is recorded as 96%. In addition, the “% stimulation” value in experiment [7] was 100%.

`CS(=O)(=O)N1CC2(CCN(C(=O)[C@@H](Cc3ccc(Cl)cc3)NC(=O)[C@H]3Cc4ccccc4CN3)CC2)c2ccccc21` [WO9964002, example 13, reference compound]: the pEC50 in experiment [1] (cAMP production) was 5.96. Moreover, in experiment [1], the “% activation functional assay” value was determined as 110%. Besides, in experiment [8] (Current Topics Med. Chem. 2003, 3, 855-883), the pKi is 8.00. The “% stimulation” value in experiment [7] is reported as 100%. The compound further had an IC50 in experiment [2] of 54 nM.
